{"source": "patent US20200054633A1", "about": "(priority 2017, published 2020)", "conditions": "600 mg, OST placebo; N=74", "source_text": "This study followed a randomized, double-blind, placebo-controlled, parallel-group, multicenter design.\nAnalysis set for safety: Safety Set included all subjects who received at least 1 dose of study drug.", "data": [{"smiles": "O=C(O)[C@H]1C2CCC(CC2)[C@@H]1Nc1nc(-c2c[nH]c3ncc(F)cc23)ncc1F", "note": "[Compound (1), Pimodivir]", "values": [{"measurement": "Any TEAE", "result": "39 (52.7%)"}, {"measurement": "Any TEAE at least possibly related to study medication", "result": "26 (35.1%)"}, {"measurement": "Any TEAE leading to a temporary stop of study medication", "result": "2 (2.7%)"}, {"measurement": "Any TEAE leading to permanent stop of study medication", "result": "3 (4.1%)"}, {"measurement": "Any TEAE with fatal outcome", "result": 0}, {"measurement": "Grade 3 TEAE: Anaemia", "result": 0}, {"measurement": "Grade 3 TEAE: Balance disorder", "result": 0}, {"measurement": "Grade 3 TEAE: Blood and lymphatic system disorders", "result": "1 (1.4%)"}, {"measurement": "Grade 3 TEAE: Blood creatine phosphokinase increased", "result": "1 (1.4%)"}, {"measurement": "Grade 3 TEAE: Bronchitis", "result": 0}, {"measurement": "Grade 3 TEAE: Constipation", "result": "1 (1.4%)"}, {"measurement": "Grade 3 TEAE: Diarrhoea", "result": "1 (1.4%)"}, {"measurement": "Grade 3 TEAE: Fatigue", "result": 0}, {"measurement": "Grade 3 TEAE: Gastrointestinal disorders", "result": "2 (2.7%)"}, {"measurement": "Grade 3 TEAE: General disorders and administration site conditions", "result": 0}, {"measurement": "Grade 3 TEAE: Hyperkalaemia", "result": "1 (1.4%)"}, {"measurement": "Grade 3 TEAE: Infections and infestations", "result": 0}, {"measurement": "Grade 3 TEAE: Investigations", "result": "1 (1.4%)"}, {"measurement": "Grade 3 TEAE: Lymphopenia", "result": "1 (1.4%)"}, {"measurement": "Grade 3 TEAE: Metabolism and nutrition disorders", "result": "1 (1.4%)"}, {"measurement": "Grade 3 TEAE: Nausea", "result": 0}, {"measurement": "Grade 3 TEAE: Nervous system disorders", "result": 0}, {"measurement": "Grade 3 TEAE: Neutropenia", "result": 0}, {"measurement": "Grade 3 TEAE: Neutrophil count decreased", "result": 0}, {"measurement": "Grade 3 TEAE: Protein urine present", "result": 0}, {"measurement": "Grade 3 TEAE: Syncope", "result": 0}, {"measurement": "Grade 3 TEAE: Thrombocytopenia", "result": 0}, {"measurement": "Grade 3 TEAE: Vomiting", "result": 0}, {"measurement": "TEAE: Abdominal discomfort", "result": "1 (1.4%) n (%)"}, {"measurement": "TEAE: Abdominal pain", "result": "0 n (%)"}, {"measurement": "TEAE: Abdominal pain upper", "result": "2 (2.7%) n (%)"}, {"measurement": "TEAE: Abdominal tenderness", "result": "0 n (%)"}, {"measurement": "TEAE: Alanine aminotransferase increased", "result": "2 (2.7%) n (%)"}, {"measurement": "TEAE: All events", "result": "39 (52.7%) n (%)"}, {"measurement": "TEAE: Anaemia", "result": "0 n (%)"}, {"measurement": "TEAE: Aphthous stomatitis", "result": "0 n (%)"}, {"measurement": "TEAE: Aspartate aminotransferase increased", "result": "1 (1.4%) n (%)"}, {"measurement": "TEAE: Atrioventricular block first degree", "result": "0 n (%)"}, {"measurement": "TEAE: Back pain", "result": "1 (1.4%) n (%)"}, {"measurement": "TEAE: Bacterial vaginosis", "result": "0 n (%)"}, {"measurement": "TEAE: Balance disorder", "result": "0 n (%)"}, {"measurement": "TEAE: Blood and lymphatic system disorders", "result": "3 (4.1%) n (%)"}, {"measurement": "TEAE: Blood bicarbonate decreased", "result": "0 n (%)"}, {"measurement": "TEAE: Blood bilirubin decreased", "result": "0 n (%)"}, {"measurement": "TEAE: Blood bilirubin increased", "result": "0 n (%)"}, {"measurement": "TEAE: Blood creatine phosphokinase increased", "result": "1 (1.4%) n (%)"}, {"measurement": "TEAE: Blood creatinine increased", "result": "0 n (%)"}, {"measurement": "TEAE: Blood glucose increased", "result": "1 (1.4%) n (%)"}, {"measurement": "TEAE: Blood potassium increased", "result": "1 (1.4%) n (%)"}, {"measurement": "TEAE: Blood pressure diastolic increased", "result": "1 (1.4%) n (%)"}, {"measurement": "TEAE: Blood urine", "result": "0 n (%)"}, {"measurement": "TEAE: Bradycardia", "result": "1 (1.4%) n (%)"}, {"measurement": "TEAE: Bronchitis", "result": "0 n (%)"}, {"measurement": "TEAE: Cardiac disorders", "result": "1 (1.4%) n (%)"}, {"measurement": "TEAE: Constipation", "result": "1 (1.4%) n (%)"}, {"measurement": "TEAE: Contusion", "result": "1 (1.4%) n (%)"}, {"measurement": "TEAE: Cough", "result": "1 (1.4%) n (%)"}, {"measurement": "TEAE: Decreased appetite", "result": "0 n (%)"}, {"measurement": "TEAE: Dehydration", "result": "0 n (%)"}, {"measurement": "TEAE: Diabetes mellitus", "result": "0 n (%)"}, {"measurement": "TEAE: Diarrhoea", "result": "20 (27.0%) n (%)"}, {"measurement": "TEAE: Dizziness", "result": "2 (2.7%) n (%)"}, {"measurement": "TEAE: Dry mouth", "result": "1 (1.4%) n (%)"}, {"measurement": "TEAE: Dry skin", "result": "1 (1.4%) n (%)"}, {"measurement": "TEAE: Dysgeusia", "result": "0 n (%)"}, {"measurement": "TEAE: Dyspepsia", "result": "0 n (%)"}, {"measurement": "TEAE: Dyspnoea", "result": "0 n (%)"}, {"measurement": "TEAE: Dysuria", "result": "0 n (%)"}, {"measurement": "TEAE: Ear and labyrinth disorders", "result": "0 n (%)"}, {"measurement": "TEAE: Ear discomfort", "result": "0 n (%)"}, {"measurement": "TEAE: Ecchymosis", "result": "0 n (%)"}, {"measurement": "TEAE: Electrocardiogram ST segment depression", "result": "0 n (%)"}, {"measurement": "TEAE: Enteritis", "result": "0 n (%)"}, {"measurement": "TEAE: Fatigue", "result": "0 n (%)"}, {"measurement": "TEAE: Fungal infection", "result": "0 n (%)"}, {"measurement": "TEAE: Gamma-glutamyltransferase increased", "result": "1 (1.4%) n (%)"}, {"measurement": "TEAE: Gastrointestinal disorders", "result": "22 (29.7%) n (%)"}, {"measurement": "TEAE: General disorders and administration site conditions", "result": "0 n (%)"}, {"measurement": "TEAE: Glomerular filtration rate decreased", "result": "1 (1.4%) n (%)"}, {"measurement": "TEAE: Gout", "result": "0 n (%)"}, {"measurement": "TEAE: HIV antibody positive", "result": "0 n (%)"}, {"measurement": "TEAE: HIV test positive", "result": "0 n (%)"}, {"measurement": "TEAE: Haematuria", "result": "0 n (%)"}, {"measurement": "TEAE: Haemoglobin decreased", "result": "0 n (%)"}, {"measurement": "TEAE: Haemoglobin increased", "result": "0 n (%)"}, {"measurement": "TEAE: Headache", "result": "1 (1.4%) n (%)"}, {"measurement": "TEAE: Hepatic enzyme increased", "result": "1 (1.4%) n (%)"}, {"measurement": "TEAE: Hepatitis C", "result": "0 n (%)"}, {"measurement": "TEAE: Herpes simplex", "result": "0 n (%)"}]}]}
